Measured values published in PubChem BioAssay AID248 (DTP/NCI, 2004).
“And” between values parts separate entries of the source, which are not always exact repeats. Identical values can stand only once. Inconclusive results and toxic doses are left out. Rule as the data show it: active = T/C of 150% or more; inactive = T/C below 125%.

Test system: L1210 leukemia ip in BDF1 mice, survival T/C
Assay: NCI In Vivo Anticancer Drug Screen. Data for tumor model L1210 Leukemia (intraperitoneal) in B6D2F1 (BDF1) mice
Settings: endpoint: mean survival time, higher = longer survival
Procedure, shortened: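 Value reflects the ratio of survival in compound-treated mice to survival in vehicle-treated controls, with both groups carrying the same transplanted tumor.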

[1] = dose: 100.0 mg/kg/injection, schedule: Q01DX009 (ip), vehicle: saline with Tween-80
[2] = dose: 200.0 mg/kg/injection, schedule: Q01DX009 (ip), vehicle: saline with Tween-80
[3] = dose: 400.0 mg/kg/injection, schedule: Q01DX009 (ip), vehicle: saline with Tween-80
[4] = dose: 100.0 mg/kg/injection, schedule: Q01DX009 (ip), vehicle: saline
[5] = dose: 200.0 mg/kg/injection, schedule: Q01DX009 (ip), vehicle: saline
[6] = dose: 400.0 mg/kg/injection, schedule: Q01DX009 (ip), vehicle: saline
[7] = dose: 50.0 mg/kg/injection, schedule: Q01DX009 (ip), vehicle: saline with Tween-80
[8] = dose: 100.0 mg/kg/injection, schedule: Q04DX003 (ip), vehicle: saline with Tween-80
[9] = dose: 100.0 mg/kg/injection, schedule: Q01DX001 (ip), vehicle: saline
[10] = dose: 200.0 mg/kg/injection, schedule: Q01DX001 (ip), vehicle: saline
[11] = dose: 400.0 mg/kg/injection, schedule: Q01DX001 (ip), vehicle: saline
[12] = dose: 200.0 mg/kg/injection, schedule: Q04DX003 (ip), vehicle: saline with Tween-80
[13] = dose: 400.0 mg/kg/injection, schedule: Q04DX003 (ip), vehicle: saline with Tween-80

Measured: T/C

CCC1(CCC#N)CCC(N)=CC1=O (stereo not drawn)
inactive: [1] 97 % of control | [2] 106 % of control | [3] 97 % of control

CC(=O)OCC(=O)[C@@]1(O)CC[C@H]2[C@@H]3C[C@H](C)C4=CC(=O)C=C[C@]4(C)[C@@]3(F)[C@@H](O)C[C@@]21C
inactive: [4] 103 % of control | dose: 100.0 mg/kg/injection, schedule: Q04DX003 (ip), vehicle: saline 94 % of control | [5] 92 % of control | dose: 200.0 mg/kg/injection, schedule: Q04DX003 (ip), vehicle: saline 111 % of control | [6] 108 % of control | dose: 400.0 mg/kg/injection, schedule: Q04DX003 (ip), vehicle: saline 103 % of control

N#Cc1ncc(C(Cl)(Cl)Cl)nc1Cl
inactive: dose: 25.0 mg/kg/injection, schedule: Q01DX009 (ip), vehicle: saline with Tween-80 103 % of control | dose: 25.0 mg/kg/injection, schedule: Q04DX003 (ip), vehicle: saline with Tween-80 100 % of control | [7] 105 % of control | dose: 50.0 mg/kg/injection, schedule: Q04DX003 (ip), vehicle: saline with Tween-80 100 % of control | [1] 105 % of control and 108 % of control | [8] 106 % of control | [2] 103 % of control | [3] 110 % of control

O=C1CC2CCC(C1)N2CC1COc2ccccc2O1 (stereo not drawn)
inactive: [9] 100 % of control | [10] 120 % of control

O=C(O)C1C2C=CC(O2)C1C(=O)NCc1cccnc1 (stereo not drawn)
inactive: [9] 106 % of control | [10] 94 % of control | [11] 95 % of control

O=C1c2ccccc2CC1(Br)Br
inactive: dose: 100.0 mg/kg/injection, schedule: Q04DX003 (ip), vehicle: other 96 % of control | dose: 200.0 mg/kg/injection, schedule: Q04DX003 (ip), vehicle: other 93 % of control

CCOC(=O)CC1OC(=O)c2ccccc21 (stereo not drawn)
inactive: dose: 100.0 mg/kg/injection, schedule: Q04DX002 (ip), vehicle: saline with Tween-80 97 % of control | dose: 200.0 mg/kg/injection, schedule: Q04DX002 (ip), vehicle: saline with Tween-80 104 % of control | dose: 400.0 mg/kg/injection, schedule: Q04DX002 (ip), vehicle: saline with Tween-80 108 % of control

O=C(COc1ccc(Cl)c(Cl)c1)N(Cc1ccccc1)Cc1ccc[n+](Cc2ccc(Cl)cc2S(=O)(=O)F)c1
inactive: dose: 100.0 mg/kg/injection, schedule: Q04DX002 (ip), vehicle: Klucel (hydroxypropylcellulose) (HPC) 95 % of control | dose: 200.0 mg/kg/injection, schedule: Q04DX002 (ip), vehicle: Klucel (hydroxypropylcellulose) (HPC) 95 % of control | dose: 400.0 mg/kg/injection, schedule: Q04DX002 (ip), vehicle: Klucel (hydroxypropylcellulose) (HPC) 104 % of control

O=S(=O)(CBr)CBr
inactive: [9] 98 % of control | [10] 95 % of control | [11] 112 % of control

C#CC(OC(=O)NC(CCSC)C(=O)OC)(c1ccccc1)c1ccccc1 (stereo not drawn)
inactive: dose: 100.0 mg/kg/injection, schedule: Q01DX001 (ip), vehicle: saline with Tween-80 99 % of control | dose: 200.0 mg/kg/injection, schedule: Q01DX001 (ip), vehicle: saline with Tween-80 99 % of control

CCN(CC)C(=O)Nc1cccc(OC(=O)NC(C)(C)C)c1
inactive: [8] 99 % of control | [12] 103 % of control | [13] 93 % of control

Nc1ccc(CCCCc2ccccc2)cc1Cl
inactive: [8] 100 % of control | [12] 100 % of control

O=c1cc(O)nc[nH]1
inactive: dose: 220.0 mg/kg/injection, schedule: Q01DX Z (oral), vehicle: methylcellulose (MC) 105 % of control | dose: 330.0 mg/kg/injection, schedule: Q01DX Z (oral), vehicle: methylcellulose (MC) 100 % of control | dose: 500.0 mg/kg/injection, schedule: Q01DX Z (oral), vehicle: methylcellulose (MC) 95 % of control

CC(=O)N1C(=O)NC(=O)C1(C)c1cccs1 (stereo not drawn)
inactive: [8] 104 % of control | [12] 98 % of control | [13] 105 % of control

C1CC[N-]CC1.Oc1ccccc1C=NCCN=Cc1ccccc1O.[CH3-].[Rh+2]
inactive: [7] 109 % of control | [1] 115 % of control | [8] 106 % of control | [2] 91 % of control | [12] 117 % of control

N#CCC1COc2ccccc2O1 (stereo not drawn)
inactive: dose: 100.0 mg/kg/injection, schedule: Q01DX001 (ip), vehicle: carboxymethylcellulose (CMC) 92 % of control | dose: 200.0 mg/kg/injection, schedule: Q01DX001 (ip), vehicle: carboxymethylcellulose (CMC) 97 % of control | dose: 400.0 mg/kg/injection, schedule: Q01DX001 (ip), vehicle: carboxymethylcellulose (CMC) 100 % of control

O=C1NC2CCC(NC(=O)N1c1ccccc1)C1=C2C1
inactive: dose: 3.13 mg/kg/injection, schedule: Q01DX009 (ip), vehicle: saline with Tween-80 94 % of control | dose: 6.25 mg/kg/injection, schedule: Q01DX009 (ip), vehicle: saline with Tween-80 90 % of control | dose: 6.25 mg/kg/injection, schedule: Q04DX003 (ip), vehicle: saline with Tween-80 106 % of control | dose: 12.5 mg/kg/injection, schedule: Q01DX009 (ip), vehicle: saline with Tween-80 97 % of control | dose: 12.5 mg/kg/injection, schedule: Q04DX003 (ip), vehicle: saline with Tween-80 94 % of control

COC(=O)NCCOS(C)(=O)=O
inactive: [9] 91 % of control | [10] 91 % of control | [11] 88 % of control

O=[N+]([O-])c1ccc(O)c([N+](=O)[O-])c1
inactive: dose: 3.35 mg/kg/injection, schedule: Q01DX Z (ip), vehicle: carboxymethylcellulose (CMC) 94 % of control | dose: 10.32 mg/kg/injection, schedule: Q01DX Z (ip), vehicle: carboxymethylcellulose (CMC) 95 % of control | dose: 13.4 mg/kg/injection, schedule: Q01DX Z (ip), vehicle: carboxymethylcellulose (CMC) 98 % of control | dose: 17.86 mg/kg/injection, schedule: Q01DX Z (ip), vehicle: carboxymethylcellulose (CMC) 94 % of control | dose: 26.8 mg/kg/injection, schedule: Q01DX Z (ip), vehicle: carboxymethylcellulose (CMC) 88 % of control | [9] 94 % of control

CC(C)(C)CC(C)(C)N(CSc1ccc(Br)cc1)CSc1ccc(Br)cc1
inactive: [9] 89 % of control | [10] 90 % of control | [11] 93 % of control

CC(=O)NC(C(C)=O)C(C)=O.CC(=O)NC(C(C)=O)C(C)=O.[Cu]
inactive: dose: 12.0 mg/kg/injection, schedule: Q01DX001 (ip), vehicle: saline 90 % of control | dose: 25.0 mg/kg/injection, schedule: Q01DX001 (ip), vehicle: saline 88 % of control

Cc1[nH]c(=O)[nH]c(=O)c1/C=C/C(=O)O
inactive: [9] 97 % of control | [4] 108 % of control | [10] 100 % of control | [5] 102 % of control | [11] 97 % of control | [6] 106 % of control

O=C1C(Cl)=C(Cl)C(=O)N1CCCCCCN1C(=O)C(Cl)=C(Cl)C1=O
inactive: dose: 100.0 mg/kg/injection, schedule: Q04DX003 (ip), vehicle: Klucel (hydroxypropylcellulose) (HPC) 92 % of control | dose: 200.0 mg/kg/injection, schedule: Q04DX003 (ip), vehicle: Klucel (hydroxypropylcellulose) (HPC) 87 % of control | dose: 400.0 mg/kg/injection, schedule: Q04DX003 (ip), vehicle: Klucel (hydroxypropylcellulose) (HPC) 92 % of control

COc1cc(/C=N/N=C(N)N)ccc1O
inactive: dose: 15.0 mg/kg/injection, schedule: Q01DX Z (ip), vehicle: saline 95 % of control | dose: 30.0 mg/kg/injection, schedule: Q01DX Z (ip), vehicle: saline 88 % of control | dose: 60.0 mg/kg/injection, schedule: Q01DX Z (ip), vehicle: saline 101 % of control | dose: 120.0 mg/kg/injection, schedule: Q01DX Z (ip), vehicle: saline 97 % of control | dose: 240.0 mg/kg/injection, schedule: Q01DX Z (ip), vehicle: saline 89 % of control

CCOC(=O)c1ccccn1
inactive: [9] 98 % of control | [10] 98 % of control

CC(=O)OCC(C)CCC(=O)C(C)C1C(=O)CC2C3CC=C4CC(OC(C)=O)CCC4(C)C3CCC21C (stereo not drawn)
inactive: [1] 96 % of control | [2] 97 % of control | [3] 96 % of control

ClC1(Cl)OC(Cl)(Cl)C(Cl)(Cl)OC1(Cl)Cl
inactive: dose: 50.0 mg/kg/injection, schedule: Q01DX009 (ip), vehicle: Klucel (hydroxypropylcellulose) (HPC) 98 % of control | dose: 100.0 mg/kg/injection, schedule: Q01DX009 (ip), vehicle: Klucel (hydroxypropylcellulose) (HPC) 98 % of control | dose: 200.0 mg/kg/injection, schedule: Q01DX009 (ip), vehicle: Klucel (hydroxypropylcellulose) (HPC) 102 % of control

CCCCCCCCCC=C(c1cccc2ccccc12)c1cccc2ccccc12
inactive: dose: 100.0 mg/kg/injection, schedule: Q01DX001 (ip), vehicle: other 93 % of control | dose: 200.0 mg/kg/injection, schedule: Q01DX001 (ip), vehicle: other 96 % of control | dose: 400.0 mg/kg/injection, schedule: Q01DX001 (ip), vehicle: other 102 % of control
